The results in this text go back to patent US9573970B2, “4-{4-[(1E)-4-(2,9-diazaspiro[5.5]undec-2-yl)but-1-en-1-yl]-2-methylbenzyl}-5-(propan-2-yl)-1H-pyrazol-3-yl beta-D glucopyranoside acetate” (Eli Lilly and Company, priority 2013, dated 2017).

The experiment deals with male rats with STZ-induced diabetes. Put plainly: Mixed meal tolerance test (MTT) in male rats with streptozotocin induced diabetes. It is filed as in vivo, rat. The note with it: 60 mg/kg oral, mean ± SE. As to the method:
The test compound is formulated by adding a vehicle of 1% hydroxyethylcellulose (HEC), 0.25% Tween® 80 w/antifoam 0.05% to preweighed test compound to make a 2.5 mg/ml solution. The mixture is probe sonicated for approximately 30 seconds. The resulting solution is used as a stock solution, from which the lower concentration dose solutions are prepared by dilution with the vehicle. STZ, 45 mg/kg, is formulated by dissolving in 0.1M Citrate buffer in 3 ml aliquots and stored in the dark on ice, when not being administered. A high fat content mixed meal (Bio-Serv® Rodent Diet F3282 High Fat) comprising Fat Calories (60%), Carbohydrate Calories (26%) and Protein Calories (15%) is utilized. Single housed Sprague Dawley rats are allowed to acclimate for a period of 3 to 7 days.
In an effort to ensure that the animals have not recently fed, STZ is administered in the afternoon, approximately six hours into the light cycle (lights on 6 am, lights off 6 pm). The animals are anesthetized with isoflurane and STZ is delivered via tail vein injection. Once animals regain consciousness, they are returned to housing and allowed to recover for 7 days.
On the two days immediately prior to the meal tolerance test (MTT) all rats are given a small amount (2-4 g) of the F3282 diet, so they became acclimated to it prior to receiving it during the experiment. On the evening before the experiment, the rats are moved into clean cages and their food is removed. The following morning animals are weighed and a blood sample is taken by tail snip for glucose measurement (Abbott AlphaTRAK™ glucometers: code 29) Animals are grouped n=6 based on fasted body weight and glucose. Thirty minutes after the test compound is orally administered, two glucose measurements are collected. Then a five gram pellet of Bio-Serv® diet 3282 is given. After 20 minutes remaining food is taken away and weighed. Blood samples are taken at 20, 40, 60 and 120 minutes for glucose measurement.

As for `C[C@H]1O[C@H](O[C@H]2[C@H](O)[C@@H](O)[C@@H](O[C@H]3[C@H](O)[C@@H](O)C(O)O[C@@H]3CO)O[C@@H]2CO)[C@H](O)[C@@H](O)[C@@H]1N[C@H]1C=C(CO)[C@@H](O)[C@H](O)[C@H]1O` (stereo partly drawn) [Acarbose, reference compound], the “Glucose value, 20 min.” value worked out at 181 ± 22.8 mg/dL; the “Glucose value, 40 min.” value was 301.3 ± 51.2 mg/dL; the “Glucose value, 60 min.” value was 371.5 ± 63.9 mg/dL; the “Glucose value, 120 min.” value worked out at 433.7 ± 83 mg/dL. Under “30 min after compound, before meal”, the “Glucose value, 0 min.” value was 124 ± 16.9 mg/dL. The “Baseline Adjusted AUC (glucose)” value (MTT) was determined as 23877 ± 4649.
